Results on 13 molecules are retold here after paper PMC7655065, “Effect of 3-subsitution of quinolinehydroxamic acids on selectivity of histone deacetylase isoforms” (Journal of Enzyme Inhibition and Medicinal Chemistry, 2020).

As a reminder, the IC50 is the concentration at which inhibition is half-maximal.

SMILES strings stand for the structures.

For test [1], the target named is T1, HDAC8 (Homo sapiens, UniProt Q9BY41).
T1 construct: EurofinPanlabs (Taipei, Taiwan)
T1 sequence (Q9BY41 1-377): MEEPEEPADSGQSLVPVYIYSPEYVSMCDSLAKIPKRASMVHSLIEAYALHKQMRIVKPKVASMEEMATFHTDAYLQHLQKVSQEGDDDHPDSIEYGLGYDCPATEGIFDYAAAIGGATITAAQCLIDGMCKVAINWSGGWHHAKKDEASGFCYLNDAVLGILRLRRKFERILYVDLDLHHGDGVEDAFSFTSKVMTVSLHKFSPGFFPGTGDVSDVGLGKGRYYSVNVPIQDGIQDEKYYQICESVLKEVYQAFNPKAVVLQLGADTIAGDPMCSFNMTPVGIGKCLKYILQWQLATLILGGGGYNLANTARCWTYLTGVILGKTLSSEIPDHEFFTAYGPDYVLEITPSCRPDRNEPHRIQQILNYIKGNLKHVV
Nature of the test: HDAC biochemical assay (Fluor-de-Lys), HDAC8. The note with it: for IC50: human recombinant HDAC8; for Selectivity ratio of HDAC8 over HDAC6: IC50 HDAC8 / IC50 HDAC6.

The target of test [2] is T2, HDAC6 (Homo sapiens, UniProt Q9UBN7).
T2 construct: EurofinPanlabs (Taipei, Taiwan)
T2 sequence (Q9UBN7 1-1215): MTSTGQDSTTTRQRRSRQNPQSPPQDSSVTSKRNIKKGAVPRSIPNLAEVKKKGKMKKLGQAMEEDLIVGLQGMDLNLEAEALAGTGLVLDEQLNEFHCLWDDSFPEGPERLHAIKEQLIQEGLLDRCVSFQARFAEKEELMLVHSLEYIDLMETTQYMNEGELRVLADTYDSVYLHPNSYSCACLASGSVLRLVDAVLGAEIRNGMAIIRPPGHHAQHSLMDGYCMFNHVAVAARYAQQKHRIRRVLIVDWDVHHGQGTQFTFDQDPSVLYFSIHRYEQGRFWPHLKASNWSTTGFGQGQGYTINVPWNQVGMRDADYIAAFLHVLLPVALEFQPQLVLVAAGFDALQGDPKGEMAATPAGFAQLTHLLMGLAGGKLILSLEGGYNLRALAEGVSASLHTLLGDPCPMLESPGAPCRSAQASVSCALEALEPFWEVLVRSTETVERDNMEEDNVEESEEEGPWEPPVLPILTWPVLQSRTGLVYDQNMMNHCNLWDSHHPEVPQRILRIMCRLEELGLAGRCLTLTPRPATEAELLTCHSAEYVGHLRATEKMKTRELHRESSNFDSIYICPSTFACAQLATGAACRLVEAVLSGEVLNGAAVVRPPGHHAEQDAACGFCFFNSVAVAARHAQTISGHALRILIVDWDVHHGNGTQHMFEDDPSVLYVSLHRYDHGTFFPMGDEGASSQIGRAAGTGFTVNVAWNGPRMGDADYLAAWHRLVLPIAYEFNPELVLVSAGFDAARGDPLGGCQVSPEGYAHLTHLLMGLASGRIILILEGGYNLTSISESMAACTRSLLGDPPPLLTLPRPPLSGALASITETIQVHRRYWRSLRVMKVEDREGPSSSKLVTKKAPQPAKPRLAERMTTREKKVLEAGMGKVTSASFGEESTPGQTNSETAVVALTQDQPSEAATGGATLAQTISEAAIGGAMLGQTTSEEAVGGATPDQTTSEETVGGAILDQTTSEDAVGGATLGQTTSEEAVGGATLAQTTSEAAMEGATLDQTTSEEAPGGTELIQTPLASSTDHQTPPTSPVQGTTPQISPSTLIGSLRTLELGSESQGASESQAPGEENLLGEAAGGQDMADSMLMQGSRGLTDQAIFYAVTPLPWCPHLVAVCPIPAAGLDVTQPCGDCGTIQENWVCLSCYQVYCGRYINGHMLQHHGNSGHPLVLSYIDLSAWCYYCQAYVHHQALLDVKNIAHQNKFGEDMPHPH
Description: HDAC biochemical assay (Fluor-de-Lys), HDAC6. The note with it: human recombinant HDAC6.

In test [3] the target is T3, HDAC1 (Homo sapiens, UniProt Q13547).
T3 construct: EurofinPanlabs (Taipei, Taiwan)
Nature of the test: HDAC biochemical assay (Fluor-de-Lys), HDAC1. The note with it: for IC50: human recombinant HDAC1, values > 10 μM estimated from best curve fitting; for Selectivity ratio of HDAC1 over HDAC6: IC50 HDAC1 / IC50 HDAC6.

The subject of test [4] is A549 cells. Description: Sulforhodamine B antiproliferative assay, A549. As to conditions: Homo sapiens; A549 cells, SRB, 48 h; values > 10 μM estimated from best curve fitting; read-out: Antiproliferative activity IC50, A549. It is filed as cell-based. How it is done: (§1) All human cancer cells were maintained in RPMI 1640 medium supplemented with 10% FBS and penicillin (100 units/ml)/streptomycin (100 µg/ml)/amphotericin B (0.25 µg/ml). All cells were maintained in humidified air containing 5% CO2 at 37 °C and cultured every 2–3 days. […]
(§2) Cells were seeded at the density of 5000 cells/well into 96-plate overnight. Basal cells were fixed with 10% trichloroacetic acid (TCA) to represent the cell population at the time of compound addition (T0). After additional incubation of DMSO (C) or different doses of test compounds (Tx) for 48 h, cells were fixed with 10% TCA and stained with SRB at 0.4% (w/v) in 1% AcOH. Unbound SRB was washed out using 1% AcOH and SRB bound cells were solubilised with 10 mM Trizma base. The absorbance was read at a wavelength of 515 nm. The 50% growth inhibition (GI50) was calculated by 100 − [(Tx – T0)/(C – T0)] × 100.

The test system of test [5] is HCT116 cells. Description: Sulforhodamine B antiproliferative assay, HCT116. The note with it: Homo sapiens, HCT-116, SRB, 48 h, values > 10 μM estimated from best curve fitting. The class given is cell-based. The method, then:
as §1, §2

For test [6], the system named is A549 cells. Nature of the test: Western blot analysis of apoptosis and DNA damage markers. The class given is cell-based, human. As to conditions: A549 cells, 48 h; comparison among the three tested compounds. The method, then: buffer (20 mMTris-HCl pH 7.5, 150 mM NaCl, 1 mM Na2EDTA, 1 mM EGTA, 1% NP-40, 1% sodium deoxycholate, 0.1% SDS, 2.5 mM β-glycerylphosphate, 1 mM Na4P2O7, 5 mM NaF, 1 mM Na3VO4 and protease inhibitor cocktail from Millipore) on ice for 30 min following by centrifugation at 13000 rpm for 30 min. Protein concentrations were determined and equal amounts of protein were separated by 8–15% sodium dodecyl sulphate-polyacrylamide gel electrophoresis (SDS–PAGE) and transferred to poly(vinylidene difluoride) (PVDF) membranes. Membranes were immunoblotted with specific antibodies overnight at 4 °C and then applied to appropriate horseradish peroxidase-conjugated anti-mouse or anti-rabbit IgG secondary antibodies for 1 h at RT. Signals were detected using an enhanced chemiluminescence (Amersham, Buckinghamshire, UK).
On the technique in general: In western blotting, separated proteins are transferred to a membrane and probed.

In test [7] the target is T4, HDAC2 (Homo sapiens, UniProt Q92769).
T4 construct: EurofinPanlabs (Taipei, Taiwan)
Nature of the test: HDAC biochemical assay (Fluor-de-Lys), HDAC2. The note with it: for IC50: human recombinant HDAC2, dash = no inhibition or activity that could not be fitted to an IC50 curve; for Selectivity ratio of HDAC2 over HDAC6: IC50 HDAC2 / IC50 HDAC6.

T3 sequence (Q13547 whole entry): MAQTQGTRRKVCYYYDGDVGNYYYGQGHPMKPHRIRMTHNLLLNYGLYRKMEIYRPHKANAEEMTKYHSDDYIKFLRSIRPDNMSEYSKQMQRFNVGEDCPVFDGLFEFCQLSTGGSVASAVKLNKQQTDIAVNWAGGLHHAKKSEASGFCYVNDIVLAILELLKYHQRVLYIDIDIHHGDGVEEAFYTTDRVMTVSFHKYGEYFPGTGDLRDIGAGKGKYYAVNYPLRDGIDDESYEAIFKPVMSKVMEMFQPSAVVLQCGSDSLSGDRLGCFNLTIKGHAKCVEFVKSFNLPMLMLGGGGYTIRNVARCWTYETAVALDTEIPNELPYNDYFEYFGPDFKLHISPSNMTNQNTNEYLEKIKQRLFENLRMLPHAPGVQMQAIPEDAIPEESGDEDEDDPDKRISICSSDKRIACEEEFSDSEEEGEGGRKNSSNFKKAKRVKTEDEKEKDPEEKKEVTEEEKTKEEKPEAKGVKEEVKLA
T4 sequence (Q92769 whole entry): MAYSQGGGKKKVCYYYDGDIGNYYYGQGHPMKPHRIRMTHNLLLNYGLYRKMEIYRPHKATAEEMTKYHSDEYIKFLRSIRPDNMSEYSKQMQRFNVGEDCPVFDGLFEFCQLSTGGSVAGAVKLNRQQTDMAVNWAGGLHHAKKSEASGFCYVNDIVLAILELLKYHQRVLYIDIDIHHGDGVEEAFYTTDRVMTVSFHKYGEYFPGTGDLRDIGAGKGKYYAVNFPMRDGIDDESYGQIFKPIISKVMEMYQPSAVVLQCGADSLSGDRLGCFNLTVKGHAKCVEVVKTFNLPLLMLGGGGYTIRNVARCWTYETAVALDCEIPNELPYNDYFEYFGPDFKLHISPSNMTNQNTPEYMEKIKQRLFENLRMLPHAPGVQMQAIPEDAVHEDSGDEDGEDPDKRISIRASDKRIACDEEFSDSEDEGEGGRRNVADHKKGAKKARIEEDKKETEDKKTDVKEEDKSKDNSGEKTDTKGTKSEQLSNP

Regarding `O=C(NO)c1ccc(CNc2cccc3cc(Cl)cnc23)cc1` [Compound 14, 4-[(3-Chloro-quinolin-8-ylamino)-methyl]-N-hydroxy-benzamide], the IC50 in test [1] is 3.64 µM; in test [2], 0.0202 µM; in test [3], 4.32 µM; in test [4], 3.14 ± 0.31 µM; in test [5] it was 4.82 ± 0.29 µM.
Consider `O=C(NO)c1ccc(CNc2cccc3cc(Br)cnc23)cc1` [Compound 15, 4-[(3-Bromo-quinolin-8-ylamino)-methyl]-N-hydroxy-benzamide], for which the IC50 in test [4] and in test [5] was over 10 µM throughout.
With `O=C(NO)c1ccc(CNc2cccc3cc(I)cnc23)cc1` [Compound 16, N-Hydroxy-4-[(3-iodo-quinolin-8-ylamino)-methyl]-benzamide], the IC50 in test [4] was 3.41 ± 0.9 µM; in test [5] it was 4.79 ± 0.47 µM.
On to `COc1cnc2c(NCc3ccc(C(=O)NO)cc3)cccc2c1` [Compound 17, N-Hydroxy-4-[(3-methoxy-quinolin-8-ylamino)-methyl]-benzamide], for which the IC50 in test [1] is 2.76 µM; in test [2] it was 0.00779 µM; in test [3], 4.95 µM; in test [4], 3.11 ± 0.24 µM; in test [5], 4.76 ± 0.43 µM; in test [7], over 10 µM. Besides, in test [6], the “Rank of efficacy in cleaving caspase isoforms (Western blot)” value is given as “least potent amongst these three compounds”.
As to `COc1ccccc1-c1cnc2c(NCc3ccc(C(=O)NO)cc3)cccc2c1` [Compound 19, N-Hydroxy-4-(((3–(2-methoxyphenyl)quinolin-8-yl)amino)methyl)benzamide], the IC50 in test [4] was over 10 µM; in test [5] it was 7.19 ± 0.77 µM.
Regarding `COc1ccc(-c2cnc3c(NCc4ccc(C(=O)NO)cc4)cccc3c2)cc1` [Compound 20, N-Hydroxy-4-(((3–(4-methoxyphenyl)quinolin-8-yl)amino)methyl)benzamide], the figures for the IC50 in test [4] and in test [5] were 9.1 ± 0.3 µM and over 10 µM, respectively.
On to `N#Cc1ccccc1-c1cnc2c(NCc3ccc(C(=O)NO)cc3)cccc2c1` [Compound 21, 4-(((3–(2-Cyanophenyl)quinolin-8-yl)amino)methyl)-N-hydroxybenzamide amide], for which the figures for the IC50 in test [4] and in test [5] were 8.65 ± 2.35 µM and 6 ± 1.56 µM, respectively.
As to `N#Cc1cccc(-c2cnc3c(NCc4ccc(C(=O)NO)cc4)cccc3c2)c1` [Compound 22, 4-(((3–(3-Cyanophenyl)quinolin-8-yl)amino)methyl)-N-hydroxybenzamide], the “Selectivity ratio of HDAC8 over HDAC6” value in test [1] is reported as “(106)”. Besides, the IC50 is 3.83 µM in test [1]; 0.0362 µM in test [2]; 9.11 µM in test [3]; 2.04 ± 0.35 µM in test [4]; 3.18 ± 0.16 µM in test [5]; 1.98 µM in test [7]. For the same molecule, the “Selectivity ratio of HDAC1 over HDAC6” value in test [3] is “(252)”. Besides, in test [7], the “Selectivity ratio of HDAC2 over HDAC6” value is reported as “(55)”.
`N#Cc1ccc(-c2cnc3c(NCc4ccc(C(=O)NO)cc4)cccc3c2)cc1` [Compound 23, 4-(((3–(4-Cyanophenyl)quinolin-8-yl)amino)methyl)-N-hydroxybenzamide]: the IC50 is 3.64 ± 0.66 µM in test [4] and 3.5 ± 0.32 µM in test [5].
Regarding `O=C(NO)c1ccc(CNc2cccc3cc(-c4cccc([N+](=O)[O-])c4)cnc23)cc1` [Compound 24, N-Hydroxy-4-(((3–(3-nitrophenyl)quinolin-8-yl)amino)methyl)benzamide], the results for the IC50 in test [4] and in test [5] were 4.05 ± 0.42 µM and 2.88 ± 0.21 µM, respectively.
As for `O=C(NO)c1ccc(CNc2cccc3cc(-c4ccco4)cnc23)cc1` [Compound 27, 4-(((3-(Furan-2-yl)quinolin-8-yl)amino)methyl)-N-hydroxybenzamide], in test [1], the “Selectivity ratio of HDAC8 over HDAC6” value was “(152)”. The IC50 was 3.14 µM in test [1]; 0.0207 µM in test [2]; 3.4 µM in test [3]; 3.18 ± 0.19 µM in test [4]; 2.2 ± 0.17 µM in test [5]; 1.28 µM in test [7]. Further, the “Selectivity ratio of HDAC1 over HDAC6” value in test [3] was “(164)”. Further, the “Selectivity ratio of HDAC2 over HDAC6” value in test [7] was “(62)”.
As to `O=C(NO)c1ccc(CNc2cccc3cc(-c4ccoc4)cnc23)cc1` [Compound 28, 4-(((3-(Furan-3-yl)quinolin-8-yl)amino)methyl)-N-hydroxybenzamide], the “Selectivity ratio of HDAC8 over HDAC6” value in test [1] was “(216)”. The IC50 in test [1] is 2.91 µM; in test [2] it was 0.0134 µM; in test [3], 4.59 µM; in test [4], 3.77 ± 0.28 µM; in test [5], 3.77 ± 0.21 µM; in test [7] it was 2.1 µM. For the same molecule, the “Selectivity ratio of HDAC1 over HDAC6” value in test [3] was “(343)”. For the same molecule, in test [7], the “Selectivity ratio of HDAC2 over HDAC6” value is reported as “(157)”.
For `O=C(NO)c1ccc(CNc2cccc3cc(-c4ccsc4)cnc23)cc1` [Compound 29, N-Hydroxy-4-(((3-(thiophen-3-yl)quinolin-8-yl)amino)methyl)benzamide], the “Selectivity ratio of HDAC8 over HDAC6” value in test [1] is on record as “(164)”. For the same molecule, the IC50 in test [1] is 4.93 µM; in test [2] it was 0.0301 µM; in test [3], 6 µM; in test [4], 3.84 ± 0.4 µM; in test [5], 3.59 ± 0.51 µM; in test [7], 3.52 µM. For the same molecule, the “Selectivity ratio of HDAC1 over HDAC6” value in test [3] is “(199)”. Moreover, the “Selectivity ratio of HDAC2 over HDAC6” value in test [7] is given as “(117)”.
